Measurements published in publication PMC6199744, “Development of Chemical Proteomics for the Folateome and Analysis of the Kinetoplastid Folateome” (ACS Infectious Diseases, 2018).
Where two headings read alike, the source gives them in different places.

How the values were obtained:
Type in all cases: binding
[1] = biological target: T1, HeLa cell extract proteins (Homo sapiens, UniProt Q93099)
T1 construct: endogenous in cells; host or cells: HeLa cell extract
T1 sequence (Q93099 1-445): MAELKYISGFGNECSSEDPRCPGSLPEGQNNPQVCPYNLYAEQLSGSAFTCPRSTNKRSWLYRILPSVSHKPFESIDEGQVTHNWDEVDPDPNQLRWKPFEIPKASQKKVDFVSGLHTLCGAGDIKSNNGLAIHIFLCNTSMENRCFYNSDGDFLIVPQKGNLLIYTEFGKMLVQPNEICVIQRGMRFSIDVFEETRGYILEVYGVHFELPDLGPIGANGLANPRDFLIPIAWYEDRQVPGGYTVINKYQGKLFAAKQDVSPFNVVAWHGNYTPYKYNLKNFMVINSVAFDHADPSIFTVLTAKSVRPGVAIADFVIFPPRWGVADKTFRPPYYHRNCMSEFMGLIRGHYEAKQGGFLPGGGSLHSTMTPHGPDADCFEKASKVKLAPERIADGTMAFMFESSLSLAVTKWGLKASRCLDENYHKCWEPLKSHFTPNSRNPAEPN

[2] = biological target: T2, HeLa cell extract proteins (Homo sapiens, UniProt O75534)
T2 construct: endogenous in cells; host or cells: HeLa cell extract
T2 sequence (O75534 1-798): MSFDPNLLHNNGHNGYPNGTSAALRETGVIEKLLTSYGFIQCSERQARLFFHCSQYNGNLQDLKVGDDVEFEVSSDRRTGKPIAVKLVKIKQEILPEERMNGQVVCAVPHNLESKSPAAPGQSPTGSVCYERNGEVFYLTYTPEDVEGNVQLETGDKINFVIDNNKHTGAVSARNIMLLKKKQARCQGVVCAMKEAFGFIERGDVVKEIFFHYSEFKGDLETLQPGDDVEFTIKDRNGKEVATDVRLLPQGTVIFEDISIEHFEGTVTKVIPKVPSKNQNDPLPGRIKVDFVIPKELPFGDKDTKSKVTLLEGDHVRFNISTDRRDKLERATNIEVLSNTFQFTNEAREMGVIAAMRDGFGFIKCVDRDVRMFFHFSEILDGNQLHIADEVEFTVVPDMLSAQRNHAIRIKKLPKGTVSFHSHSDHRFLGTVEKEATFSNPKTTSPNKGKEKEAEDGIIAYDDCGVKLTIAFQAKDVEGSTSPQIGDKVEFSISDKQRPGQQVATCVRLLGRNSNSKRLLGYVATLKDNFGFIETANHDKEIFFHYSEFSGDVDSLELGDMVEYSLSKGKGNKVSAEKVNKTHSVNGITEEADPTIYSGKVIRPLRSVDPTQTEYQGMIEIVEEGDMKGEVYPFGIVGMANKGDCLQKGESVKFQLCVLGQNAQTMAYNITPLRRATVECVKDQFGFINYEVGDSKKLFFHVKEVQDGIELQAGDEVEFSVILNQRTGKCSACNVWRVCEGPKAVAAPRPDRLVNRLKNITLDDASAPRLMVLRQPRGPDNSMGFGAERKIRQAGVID

[3] = biological target: T3, HeLa cell extract proteins (Homo sapiens, UniProt O00170)
T3 construct: endogenous in cells; host or cells: HeLa cell extract
T3 sequence (O00170 1-330): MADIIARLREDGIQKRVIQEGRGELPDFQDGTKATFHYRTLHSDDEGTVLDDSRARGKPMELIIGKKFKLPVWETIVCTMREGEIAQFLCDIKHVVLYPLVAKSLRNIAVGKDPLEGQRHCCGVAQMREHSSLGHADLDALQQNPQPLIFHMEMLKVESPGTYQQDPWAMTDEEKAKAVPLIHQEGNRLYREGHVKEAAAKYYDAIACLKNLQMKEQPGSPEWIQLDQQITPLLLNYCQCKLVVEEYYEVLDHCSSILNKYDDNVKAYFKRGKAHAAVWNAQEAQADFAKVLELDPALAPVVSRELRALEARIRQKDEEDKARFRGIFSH

[4] = biological target: T4, HeLa cell extract proteins (Homo sapiens, UniProt Q96S59)
T4 construct: endogenous in cells; host or cells: HeLa cell extract

[5] = biological target: T5, HeLa cell extract proteins (Homo sapiens, UniProt O60232)
T5 construct: endogenous in cells; host or cells: HeLa cell extract
T5 sequence (O60232 1-199): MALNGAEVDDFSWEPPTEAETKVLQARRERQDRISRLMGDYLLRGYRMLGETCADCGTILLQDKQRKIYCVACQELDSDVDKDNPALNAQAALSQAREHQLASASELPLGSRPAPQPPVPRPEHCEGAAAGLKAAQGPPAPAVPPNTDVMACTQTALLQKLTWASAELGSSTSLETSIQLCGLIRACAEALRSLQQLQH

[6] = biological target: T6, HeLa cell extract proteins (Homo sapiens, UniProt Q7Z6Z7)
T6 construct: endogenous in cells; host or cells: HeLa cell extract
T6 sequence (Q7Z6Z7 whole entry): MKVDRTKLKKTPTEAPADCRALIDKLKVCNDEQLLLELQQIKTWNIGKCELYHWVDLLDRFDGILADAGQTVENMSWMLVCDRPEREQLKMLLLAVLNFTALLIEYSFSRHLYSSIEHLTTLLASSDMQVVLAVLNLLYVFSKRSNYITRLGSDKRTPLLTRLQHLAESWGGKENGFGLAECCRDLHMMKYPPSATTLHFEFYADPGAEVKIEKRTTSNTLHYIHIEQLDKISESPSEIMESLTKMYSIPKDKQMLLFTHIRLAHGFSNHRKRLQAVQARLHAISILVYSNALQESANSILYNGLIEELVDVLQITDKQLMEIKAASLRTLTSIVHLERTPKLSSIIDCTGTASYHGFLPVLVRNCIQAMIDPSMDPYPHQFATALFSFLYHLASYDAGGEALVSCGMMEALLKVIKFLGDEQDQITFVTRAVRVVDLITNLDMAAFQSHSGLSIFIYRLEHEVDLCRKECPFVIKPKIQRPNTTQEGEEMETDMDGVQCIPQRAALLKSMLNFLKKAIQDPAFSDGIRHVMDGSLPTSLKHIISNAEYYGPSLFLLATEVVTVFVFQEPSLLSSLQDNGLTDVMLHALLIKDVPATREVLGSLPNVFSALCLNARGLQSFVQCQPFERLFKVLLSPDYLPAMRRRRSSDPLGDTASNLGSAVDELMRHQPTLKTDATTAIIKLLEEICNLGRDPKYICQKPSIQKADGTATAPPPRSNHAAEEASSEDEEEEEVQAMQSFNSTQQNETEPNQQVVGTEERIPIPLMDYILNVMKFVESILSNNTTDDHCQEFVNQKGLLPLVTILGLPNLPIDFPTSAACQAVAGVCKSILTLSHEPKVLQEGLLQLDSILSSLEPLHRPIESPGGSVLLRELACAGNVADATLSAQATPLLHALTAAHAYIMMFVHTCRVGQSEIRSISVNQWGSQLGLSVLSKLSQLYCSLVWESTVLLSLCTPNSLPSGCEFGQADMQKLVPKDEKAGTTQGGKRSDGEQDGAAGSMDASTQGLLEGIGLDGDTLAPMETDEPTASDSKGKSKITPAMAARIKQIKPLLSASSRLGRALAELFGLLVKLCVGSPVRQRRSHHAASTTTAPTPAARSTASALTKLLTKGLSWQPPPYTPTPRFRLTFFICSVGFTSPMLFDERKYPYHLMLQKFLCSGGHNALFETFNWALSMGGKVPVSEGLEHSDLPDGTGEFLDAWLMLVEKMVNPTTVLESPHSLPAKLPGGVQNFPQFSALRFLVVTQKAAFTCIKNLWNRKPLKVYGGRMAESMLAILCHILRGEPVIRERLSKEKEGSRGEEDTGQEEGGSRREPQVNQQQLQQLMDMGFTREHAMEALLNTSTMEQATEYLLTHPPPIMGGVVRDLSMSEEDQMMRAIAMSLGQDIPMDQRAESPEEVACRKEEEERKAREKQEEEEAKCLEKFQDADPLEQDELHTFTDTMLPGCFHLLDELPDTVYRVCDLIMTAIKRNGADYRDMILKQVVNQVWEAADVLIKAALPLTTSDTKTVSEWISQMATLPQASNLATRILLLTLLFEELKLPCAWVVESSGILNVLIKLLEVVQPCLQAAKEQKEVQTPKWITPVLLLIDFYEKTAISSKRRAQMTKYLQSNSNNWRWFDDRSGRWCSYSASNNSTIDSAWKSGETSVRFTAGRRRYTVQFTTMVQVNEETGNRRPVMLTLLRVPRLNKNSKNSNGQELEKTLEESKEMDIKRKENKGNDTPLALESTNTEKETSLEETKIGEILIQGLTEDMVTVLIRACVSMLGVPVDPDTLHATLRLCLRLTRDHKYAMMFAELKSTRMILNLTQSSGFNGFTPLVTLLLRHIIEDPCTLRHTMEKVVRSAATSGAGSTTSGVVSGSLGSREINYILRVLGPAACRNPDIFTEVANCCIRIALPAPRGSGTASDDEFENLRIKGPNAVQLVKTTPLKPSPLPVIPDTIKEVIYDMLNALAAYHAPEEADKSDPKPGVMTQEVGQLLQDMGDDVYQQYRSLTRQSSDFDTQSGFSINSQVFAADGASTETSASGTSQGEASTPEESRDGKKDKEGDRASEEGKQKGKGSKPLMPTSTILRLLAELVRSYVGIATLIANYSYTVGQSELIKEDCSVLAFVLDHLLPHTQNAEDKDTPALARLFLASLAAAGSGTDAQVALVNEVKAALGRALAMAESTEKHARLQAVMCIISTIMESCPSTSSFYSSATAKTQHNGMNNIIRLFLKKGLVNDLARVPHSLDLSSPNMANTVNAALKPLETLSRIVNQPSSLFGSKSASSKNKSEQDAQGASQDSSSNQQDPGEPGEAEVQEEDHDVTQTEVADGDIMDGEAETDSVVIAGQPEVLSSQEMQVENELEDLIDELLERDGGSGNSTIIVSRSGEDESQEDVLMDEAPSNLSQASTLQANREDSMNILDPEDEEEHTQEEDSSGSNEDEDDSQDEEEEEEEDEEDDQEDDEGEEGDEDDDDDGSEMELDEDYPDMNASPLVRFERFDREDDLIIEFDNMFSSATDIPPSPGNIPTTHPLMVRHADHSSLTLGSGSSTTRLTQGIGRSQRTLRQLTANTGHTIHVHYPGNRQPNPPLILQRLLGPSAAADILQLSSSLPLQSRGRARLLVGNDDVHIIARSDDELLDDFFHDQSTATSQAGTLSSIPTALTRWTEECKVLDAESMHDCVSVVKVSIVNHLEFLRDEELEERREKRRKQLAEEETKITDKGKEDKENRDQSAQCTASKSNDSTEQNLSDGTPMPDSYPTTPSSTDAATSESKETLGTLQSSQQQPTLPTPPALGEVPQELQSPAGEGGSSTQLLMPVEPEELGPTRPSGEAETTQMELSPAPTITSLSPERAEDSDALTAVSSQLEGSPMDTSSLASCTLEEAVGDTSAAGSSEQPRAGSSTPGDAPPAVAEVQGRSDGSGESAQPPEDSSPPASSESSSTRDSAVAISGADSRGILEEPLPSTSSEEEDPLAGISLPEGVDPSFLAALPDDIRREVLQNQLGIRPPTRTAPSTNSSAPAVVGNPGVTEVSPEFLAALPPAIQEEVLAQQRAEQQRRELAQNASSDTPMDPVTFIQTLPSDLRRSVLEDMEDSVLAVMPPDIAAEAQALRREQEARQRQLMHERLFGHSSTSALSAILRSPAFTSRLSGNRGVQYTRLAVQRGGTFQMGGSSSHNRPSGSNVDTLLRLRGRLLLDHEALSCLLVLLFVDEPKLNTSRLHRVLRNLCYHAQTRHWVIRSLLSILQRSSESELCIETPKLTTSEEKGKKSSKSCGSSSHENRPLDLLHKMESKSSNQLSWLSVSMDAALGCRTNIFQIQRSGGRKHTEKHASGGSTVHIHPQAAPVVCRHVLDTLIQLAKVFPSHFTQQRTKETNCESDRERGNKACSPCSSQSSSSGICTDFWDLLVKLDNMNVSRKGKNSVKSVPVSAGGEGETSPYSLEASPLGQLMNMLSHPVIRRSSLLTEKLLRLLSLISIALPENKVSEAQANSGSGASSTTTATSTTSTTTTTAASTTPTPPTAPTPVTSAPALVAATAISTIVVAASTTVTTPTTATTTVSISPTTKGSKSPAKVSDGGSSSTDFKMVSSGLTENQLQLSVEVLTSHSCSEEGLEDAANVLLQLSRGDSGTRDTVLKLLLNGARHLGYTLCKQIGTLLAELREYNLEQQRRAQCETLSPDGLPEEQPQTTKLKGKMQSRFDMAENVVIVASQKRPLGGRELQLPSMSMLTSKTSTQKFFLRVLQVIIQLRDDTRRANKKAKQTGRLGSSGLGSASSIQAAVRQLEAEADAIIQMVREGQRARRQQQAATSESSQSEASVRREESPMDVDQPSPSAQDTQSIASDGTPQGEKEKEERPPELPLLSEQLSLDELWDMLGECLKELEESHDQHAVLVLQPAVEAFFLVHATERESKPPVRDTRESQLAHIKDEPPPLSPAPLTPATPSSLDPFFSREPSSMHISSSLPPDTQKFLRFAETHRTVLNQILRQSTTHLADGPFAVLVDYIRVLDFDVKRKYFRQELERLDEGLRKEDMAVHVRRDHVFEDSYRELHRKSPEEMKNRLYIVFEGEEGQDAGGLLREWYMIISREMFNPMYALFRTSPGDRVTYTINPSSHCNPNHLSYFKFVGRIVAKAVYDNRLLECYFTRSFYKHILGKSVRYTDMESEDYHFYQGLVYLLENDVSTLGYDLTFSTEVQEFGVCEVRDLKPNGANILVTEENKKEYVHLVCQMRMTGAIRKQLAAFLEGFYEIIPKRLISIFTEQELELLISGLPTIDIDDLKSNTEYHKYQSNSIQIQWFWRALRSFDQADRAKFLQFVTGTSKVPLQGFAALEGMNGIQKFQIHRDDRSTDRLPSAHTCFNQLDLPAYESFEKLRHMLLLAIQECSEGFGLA

[7] = biological target: T7, HeLa cell extract proteins (Homo sapiens, UniProt P35268)
T7 construct: endogenous in cells; host or cells: HeLa cell extract

[8] = biological target: T8, HeLa cell extract proteins (Homo sapiens, UniProt P30405); details: protein PPIF; HeLa
T8 construct: endogenous in cells; host or cells: HeLa cell extract
T8 sequence (P30405 30-207): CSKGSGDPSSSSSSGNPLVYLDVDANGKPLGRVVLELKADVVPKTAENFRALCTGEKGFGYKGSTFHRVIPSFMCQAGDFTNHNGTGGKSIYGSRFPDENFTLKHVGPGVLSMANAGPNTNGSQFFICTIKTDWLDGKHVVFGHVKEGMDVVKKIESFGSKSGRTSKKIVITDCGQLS

[9] = biological target: T9, HeLa cell extract proteins (Homo sapiens, UniProt P43358); details: protein MAGEA4; HeLa
T9 construct: endogenous in cells; host or cells: HeLa cell extract
T9 sequence (P43358 1-317): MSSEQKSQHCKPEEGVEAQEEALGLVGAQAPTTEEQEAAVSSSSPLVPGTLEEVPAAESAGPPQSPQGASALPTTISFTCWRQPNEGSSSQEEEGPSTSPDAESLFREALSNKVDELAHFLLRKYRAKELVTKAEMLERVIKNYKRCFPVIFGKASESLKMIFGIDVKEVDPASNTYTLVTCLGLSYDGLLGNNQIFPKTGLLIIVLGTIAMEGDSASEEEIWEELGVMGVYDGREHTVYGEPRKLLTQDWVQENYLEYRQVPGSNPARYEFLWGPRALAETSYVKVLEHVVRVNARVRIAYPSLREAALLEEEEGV

[10] = biological target: T10, HeLa cell extract proteins (Homo sapiens, UniProt Q9Y5M8); details: captured protein SRPRB; HeLa
T10 construct: endogenous in cells; host or cells: HeLa cell extract
T10 sequence (Q9Y5M8 1-271): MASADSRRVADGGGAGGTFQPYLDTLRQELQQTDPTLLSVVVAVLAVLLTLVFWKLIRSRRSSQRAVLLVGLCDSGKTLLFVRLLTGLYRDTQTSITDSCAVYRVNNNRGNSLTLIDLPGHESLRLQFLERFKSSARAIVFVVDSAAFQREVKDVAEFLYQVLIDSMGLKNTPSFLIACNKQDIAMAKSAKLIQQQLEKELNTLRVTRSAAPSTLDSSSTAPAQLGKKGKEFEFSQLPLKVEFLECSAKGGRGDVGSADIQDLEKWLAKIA

[11] = biological target: T11, HeLa cell extract proteins (Homo sapiens, UniProt Q16795); details: captured protein NDUFA9; HeLa
T11 construct: endogenous in cells; host or cells: HeLa cell extract
T11 sequence (Q16795 36-377): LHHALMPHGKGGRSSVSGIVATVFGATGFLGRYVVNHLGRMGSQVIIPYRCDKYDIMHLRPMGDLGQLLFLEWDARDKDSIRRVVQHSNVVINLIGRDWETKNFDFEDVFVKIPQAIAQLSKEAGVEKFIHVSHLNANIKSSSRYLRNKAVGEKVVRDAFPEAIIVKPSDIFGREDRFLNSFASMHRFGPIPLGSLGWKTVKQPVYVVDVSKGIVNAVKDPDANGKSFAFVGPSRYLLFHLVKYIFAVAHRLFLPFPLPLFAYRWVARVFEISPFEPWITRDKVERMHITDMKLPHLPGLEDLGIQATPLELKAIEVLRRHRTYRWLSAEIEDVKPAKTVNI

| Compound | fold changes relative to vehicle control ([1]; HeLa, protein HGD) | fold changes relative to vehicle control ([2]; HeLa, protein CSDE1) | fold changes relative to vehicle control ([3]; HeLa, captured protein AIP) | fold changes relative to vehicle control ([4]; protein RANBP9, HeLa) | fold changes relative to vehicle control ([5]; protein SSSCA1, HeLa) | fold changes relative to vehicle control ([6]; HeLa, protein HUWE1) | fold changes relative to vehicle control ([7]; HeLa, protein RPL22) | fold changes relative to vehicle control [8] | fold changes relative to vehicle control [9] | fold changes relative to vehicle control [10] | fold changes relative to vehicle control [11] | other results |
| --- | --- | --- | --- | --- | --- | --- | --- | --- | --- | --- | --- | --- |
| Nc1nc2c(c(=O)[nH]1)N(C=O)C(CNc1ccc(C(=O)N[C@@H](CCC(=O)O)C(=O)O)cc1)CN2 (stereo partly shown) [LEU, leucovorin] | 0.87 | 0.96 | 0.79 | 1.03 | 0.95 | 0.98 | 0.86 |  |  |  |  |  |
| Nc1nc2[nH]cc(CCc3ccc(C(=O)N[C@@H](CCC(=O)O)C(=O)O)cc3)c2c(=O)[nH]1 [PTX, pemetrexed] |  |  |  |  |  |  |  |  |  |  |  | fold changes relative to vehicle control [1]: 1.01; fold changes relative to vehicle control [2]: 1.14; fold changes relative to vehicle control [3]: 0.93; fold changes relative to vehicle control [4]: 1.05; fold changes relative to vehicle control [5]: 0.94; fold changes relative to vehicle control [6]: 1.02; fold changes relative to vehicle control [7]: 0.98 |
| CCCCCCOc1ccc(Cc2cnc(N)nc2N)cc1 [compound 1] |  |  |  |  |  |  |  | 1.23 | 0.95 | 1.12 | 1.01 |  |
| CCCCCCOc1cccc(Cc2cnc(N)nc2N)c1 [compound 2] |  |  |  |  |  |  |  | 1.79 | 1.19 | 1.08 | 0.87 |  |
| Nc1nc2cccc(-c3ccccc3)c2n1Cc1ccc(Cl)c(Cl)c1 [compound 3] |  |  |  |  |  |  |  | 0.95 | 0.98 | 0.91 | 1.04 |  |
| NCCOCCOCC(=O)Nc1nc2ncc(CNc3ccc(C(=O)NC(CCC(=O)O)C(=O)O)cc3)nc2c(=O)[nH]1 (stereo not shown) [compound 6] | 1.01 | 1.22 | 0.92 | 0.96 | 1.13 | 1.23 | 1.2 |  |  |  |  |  |
| NCCCNc1ccc(C(=O)NC(CCC(=O)O)C(=O)O)cc1 (stereo not shown) [compound 7] | 0.8 | 1.05 | 0.99 | 1.65 | 1.07 | 0.96 | 1.19 |  |  |  |  |  |
